Experimental findings from patent US12318357B2, “Small molecule drugs and related methods for treatment of diseases related to TDP-43, alpha-synuclein, huntingtin's protein and tau protein oligomer formation” (ACELOT, INC., priority 2019, dated 2025) are described below.

“Also recorded” adds a separate entry of the source. Where two headings read alike, the source gives them in different places.

For test [1], the target named is T1, TDP-43307-319 WT peptide (Homo sapiens, UniProt Q13148).
T1 construct: TDP-43307-319 WT peptide 307 [MGGGMNF GAFSIN]319; made in house; host or cells: chemical synthesis (Fmoc solid phase peptide synthesis), not recombinant
In words: IM-MS monitoring of oligomerization of TDP-43307-319 (recovery study on aggregated peptide). The class given is biochemical. Particulars: 100 μM peptide.

Test [2] concerns the target T1, TDP-43307-319 WT peptide. The description is as above. Conditions: for oligomer distribution initially after addition of inhibitor to aggregated WT peptide: initial time point; for oligomer distribution a week after single treatment: one week; for remodeling of developed higher-order oligomers and prevention of re-formation (overall): recovery study on aggregated peptide; for rate of redistribution relative to the other inhibitors: recovery study, comparison among molecules. The class given is biochemical. As for the experimental part:
Peptide Synthesis and Purification. TDP-43307-319 WT peptide 307 [MGGGMNF GAFSIN]319 was synthesized using standard 9-fluorenylmethoxycarbonyl (Fmoc) chemistry using 2-(1H-benzotriazol-1-yl)-1,1,3,3-tetramethyluronium hexafluorophosphate/hydroxy-benzotriazole (HBTU/HOBT) manual solid phase peptide synthesis. The peptide was amidated with an Fmoc-Rink Amide resin (Anaspec). The peptide was cleaved from the resin using 94% TFA, 5% triisopropylsilane, and 1% phenol for 2 h at 295 K. The crude peptide was purified by reverse phase high performance liquid chromatography (RP-HPLC) on a semipreparative C18 column (Phenomenex) using gradients of water [0.1% (v/v) TFA] and acetonitrile [0.1% (v/v) TFA]. The peptide was dissolved in 6 M guanidine hydrochloride (GdnHCl) prior to injection due to its insolubility in water and acetonitrile. The peptide purity was >93% as determined by analytical RP-HPLC. The molecular mass of the peptide was verified by ESI mass spectrometry.
IM-MS was utilized to monitor the oligomerization of TDP-43307-319 in the presence of molecules AC0107, AC0105, AC0102 and AC0201. The ability of IMMS to separate species of a specific [m]z+ (m=mass, z=charge) that contains different [n]z+ (n=oligomer number) by measuring the arrival time distributions (ATDs) yields oligomeric distributions. Samples were prepared as mentioned previously and incubated at room temperature under quiescent conditions.
The TDP-43307-319 WT peptide was dissolved in 10 mM ammonium acetate (pH 7.4) with 2% HFIP to a final peptide concentration of 100 μM. The sample was incubated at room temperature under quiescent conditions for 4 h to develop higher-order oligomers. Two dominant mass/charge (m/z) peaks were always present in the mass spectra corresponding to [n]Z+=[1]1+ and [1]2+. […] After incubation at room temperature for 4 h, the distribution shifted toward the higher-order oligomers. […] Once the presence of higher-order oligomers was confirmed, an inhibitor (either [AC0107], [AC0105], [AC0102], [AC0201] or [AC0202]) was added in a 1:1 peptide (100 μM): inhibitor (100 μM) molar ratio. Subsequent time points were taken to monitor the remodeling properties of the inhibitors.

In test [3] the test system is TDP43 granules in U2OS cells stably expressing tGFP tagged human TDP-43. In words: TDP43 granule formation inhibition in TDP43-tGFP-U2OS cells after sodium arsenite treatment. In kind it is cell-based. Conditions: for TDP43 granule formation inhibition in cells after arsenite treatment (overall result): 24 h pre-incubation, 1-10 μM, 250 μM sodium arsenite 120 min. The source says:
Amyotrophic lateral sclerosis (ALS) is one of the most common degenerative diseases of the motor neuron system. TDP-43 related pathologies seem to be a dominant type of pathologies across sporadic ALS types. A novel fluorescence cell-based assay for High Content Screening that allows the quantification of pathological TDP43 granules has been developed. In this work we have used this model to screen the effects of three compounds, using Riluzole as a positive control. The TDP-43 U2OS cell line contains U2OS cells stably expressing the tGFP tagged human TDP-43. This cell line has been designed to test compounds and to analyse their capability to modulate TDP43 granule formation after cytotoxic stress induction. The cell line was generated in Innoprot. It is a stable cell line that express the LacRI repressor protein and the TDP43-turboGFP protein. The cell line was generated using the pCMVLacRI-Hygro plasmid (Hygromycin resistance) and the pPuro-TDP43tGFP plasmid (that confers the puromycin resistance). The cell line was generated transfecting these plasmids with Lipofectamine LTX reagent, and the transfected cells were diluted until critical dilution. The negative control show a diffuse nuclear distribution of the fluorescence, but after sodium arsenite treatment the phenotype turns into a cytosolic vesicular pattern corresponding to stress granules and into an intensive nuclear granules pattern. The aim of this work was to assess different doses of 11 compounds.
The objective of these experiments was to screen the protective effect of 11 compounds and reference compound (arimoclomol) against cellular oxidative stress induced by sodium arsenite (i.e., arsenite). The compounds have been tested at 10 μM, […], 2 μM and 1 μM each, and appropriate controls (vehicle, arsenite and controls) have been included as well. The compound tested were the following: 101, 102, 103, 104, 105, 106, 107, 201, 202, 203 and 204.
Each compound was prepared in Optimem. In the final dilution, DMSO was added in order to obtain a final DMSO concentration of 0.1$, the same that the reference compound (arimoclomol). All compounds were tested at 0.1% DMSO (vehicle) final concentration.
Day 1 (Thursday). Recombinant TDP43-tGFP-U2OS cell line was thawed (2×10^6 cells per T75). Day 2 (Friday). After 24 hours, Cells were maintained in DMEM-F12 supplemented with 10% FBS at 37° C. in a humidified 5% CO2 atmosphere. Day 5 (Monday). Cells were plated in coated 96-well plates with a number of 10.000 cells (+/−2000 cells) per well. Cells were maintained in DMEM-F12 medium supplemented with 10% FBS for 24 h at 37° C. in a humidified 5% CO2 atmosphere. Day 6 (Tuesday). Cells were incubated with test compounds and IPTG 1 mM in triplicate assays during 24 hours. Day 7 (Wednesday). Culture medium was replaced, and cells were treated with 250 μM of sodium arsenite during 120 min and TDP-43 globs formation was quantified in both cell cytoplasm and cell nucleus. The TDP43 granules formation was quantified after the formaldehyde fixation (3.7 wt. %, 20 minutes) of the cells. The nuclei were stained using DAPI (2 μg/ml) and the fluorescence was measured using a Cell Insight High-Content Bioimager from Thermofisher. To detect the DAPI, the filters used were 380/10 and 460/10 nm for excitation and emission, respectively and to detect the TDP43 granules, the filters were 488/20 and 520/20 nm, respectively. The images were obtained with an objective of 20×, taking 9 pictures of each well. Cell quantification was performed delimitating the region of interest of the nuclei (stained with DAPI) and after quantification, the average of each triplicate was performed. Granule quantification was also performed using the Thermofisher Cellomics Scan Viewer 6.1.1. Spot detector application from Cell Software delimitated 2 regions of interest, the nuclei and cytosol. This software application quantified the number of granules per nuclei and the average granule number per cytosol of each well was calculated. […]

Where [4] appears, read: Homo sapiens, U2OS, normalized to sodium arsenite and vehicle, read-out: maximum stress granule inhibition in cytosol.
[5] abbreviates: 1:1 peptide (100 μM): inhibitor (100 μM), added after 4 h aggregation.

As to `CC(C)C(NCc1ccccc1)c1cccc(C=O)c1` (stereo not shown) [AC0201, 3-[1-(benzylamino)-2-methylpropyl]benzaldehyde], the “redistribution of oligomers at 10:1 peptide:inhibitor molar ratio” value at TDP-43307-319 WT peptide [1] (10 μM inhibitor) is given as “takes a longer time to dissociate oligomers to mostly monomer; also recorded: very effective inhibitor; also recorded: effective”. Further, the “redistribution of oligomers at 4:1 peptide:inhibitor molar ratio” value at TDP-43307-319 WT peptide [1] (25 μM inhibitor) was “effective at redistributing and maintaining the population of lower-order oligomers”. For the same compound, the “redistribution of oligomers at 2:1 peptide:inhibitor molar ratio” value on TDP-43307-319 WT peptide [1] (50 μM inhibitor) was “effective at redistributing and maintaining the population of lower-order oligomers”. Moreover, the “oligomer distribution at 3-24 h” value on TDP-43307-319 WT peptide [2] (1:1, 100 μM each, 3-24 h after addition) was “dominated by monomer and dimer”. At TDP-43307-319 WT peptide [2] (1:1, 100 μM each), the “oligomer distribution initially after addition of inhibitor to aggregated WT peptide” value was “immediately pushed the bulk of the distribution back to monomer, dimer, and trimer”; the “oligomer distribution a week after single treatment” value was “dominate monomer peak was observed”. For the same compound, at TDP-43307-319 WT peptide [2], the “remodeling of developed higher-order oligomers and prevention of re-formation (overall)” value (“remodeling” for short) is “successfully redistributed the oligomers to monomer and was able to prevent the re-formation of higher-order oligomers”; the “rate of redistribution relative to the other inhibitors” value was “fastest and most efficient redistribution”.

On to `CC(=O)Nc1ccc(CNCCc2cccc(Cl)c2)cc1` [AC0101, N-[4-({[2-(3-chlorophenyl)ethyl]amino}methyl)phenyl]acetamide], for which the “TDP43 granule formation inhibition in cells after arsenite treatment (overall result)” value (shortened to “TDP43 granule formation inhibition”) in test [3] is “positive”. Also, the inhibition at 5 µM in test [3] (Homo sapiens, U2OS, at 5 μM, normalized to sodium arsenite and vehicle, read-out: maximum stress granule inhibition in nucleus) stood at 62.5%. Moreover, the inhibition at 10 µM in test [3] (setting [4]) is 44%.

As to `CN(C)C(=O)C(c1ccccc1)N1CCN(c2ccc(O)cc2)CC1` (stereo not shown) [AC0103, 2-[4-(4-hydroxyphenyl)piperazin-1-yl]-N,N-dimethyl-2 phenylacetamide], the “TDP43 granule formation inhibition” value in test [3] is on record as “positive”. The inhibition at 10 µM in test [3] (setting [4]) turned out to be 47.2%.

Consider `N#Cc1cccc(CNCc2ccc(CN3CCOCC3)cc2)c1` [AC0104, 3-[({[4-(morpholin-4 ylmethyl)phenyl]methyl}amino)methyl]benzonitrile], for which the “TDP43 granule formation inhibition” value in test [3] is recorded as “mildly active”.

Turning to `CN(C)Cc1ccc(CNCc2ccc3c(c2)OCCO3)cc1` [AC0102, (2,3-dihydro-1,4-benzodioxin-6-ylmethyl)({4 [(dimethylamino)-methyl]phenyl}methyl)amine], on TDP-43307-319 WT peptide [2] (1:1, 100 μM each, 1 h after addition), the “oligomer distribution after 1 h” value is given as “remnants of higher-order oligomers are present”. Further, the “oligomer distribution initially after addition of inhibitor to aggregated WT peptide” value on TDP-43307-319 WT peptide [2] (1:1, 100 μM each) is recorded as “shift toward higher-order oligomers”. For the same compound, at TDP-43307-319 WT peptide [2] (1:1, 100 μM each, later time points), the “oligomer distribution at later time points” value was “composed primarily of monomer and dimer”. On TDP-43307-319 WT peptide [2], the “remodeling” value is “able to remodel the developed higher-order oligomers and prevent the re-formation of these toxically related species”; the “rate of redistribution relative to the other inhibitors” value is “slower rate”. In test [3], the “TDP43 granule formation inhibition” value is “positive”. Besides, the inhibition at 10 µM in test [3] (setting [4]) was found to be 36.9%. The inhibition at 10 µM in test [3] (Homo sapiens, U2OS, normalized to sodium arsenite and vehicle, read-out: maximum stress granule inhibition in nucleus) amounted to 27.7%.

Take `N#Cc1ccc(CNCc2ccc(CN3CCCC3)cc2)cc1` [AC0105, 4-[({[4-(pyrrolidin-1 ylmethyl)phenyl]methyl}amino)methyl]benzonitrile]: on TDP-43307-319 WT peptide [2] (1:1, 100 μM each), the “oligomer distribution initially after addition of inhibitor to aggregated WT peptide” value was “immediate dissociation of higher-order oligomers into monomer and dimer”; the “oligomer distribution a week after single treatment” value was “maintained for a week”. The “remodeling” value on TDP-43307-319 WT peptide [2] was “able to remodel the developed higher-order oligomers and prevent the re-formation of these toxically related species”. Moreover, the “TDP43 granule formation inhibition” value in test [3] is on record as “mildly active”.

As to `N#Cc1ccc(CNCc2cccc(CN3CCCC3)c2)cc1` [AC0107, 4-[({[3-(pyrrolidin-1-ylmethyl)phenyl]methyl}amino)methyl]benzonitrile], at TDP-43307-319 WT peptide [2] (1:1, 100 μM each), the “time by which redistribution to mostly monomer and dimer is seen” value is given as at least 3 h; the “oligomer distribution initially after addition of inhibitor to aggregated WT peptide” value was “initial increase in the number of higher-order oligomers”. In addition, at TDP-43307-319 WT peptide [2] (setting [5]), the “complexation between WT peptide and molecule in mass spectra” value is given as “no complexation”; the “level of aggregation (signal-to-noise ratio, baseline, [1]1+ peak) after addition of inhibitor” value is recorded as “level of aggregation was reduced”. In addition, the “remodeling” value at TDP-43307-319 WT peptide [2] is “able to remodel the developed higher-order oligomers and prevent the re-formation of these toxically related species”.
